Measured values reported in US8309068B2, “Isolated polypeptides and methods of improving muscle strength” (Myostin Therapeutics Pty Ltd., priority 2006, dated 2012).

Assays:
[1] = test system: C2C12 myoblasts; test: C2C12 myoblast proliferation assay (methylene blue endpoint); format: cell-based, murine; settings: recombinant myostatin at 2.25 μg/ml in control medium
Protocol: A polypeptide of the invention, or a fragment, variant or derivative thereof has the biological function of antagonising myostatin activity. To determine whether a polypeptide of the invention, or a fragment, variant or derivative thereof, is able to antagonise myostatin activity, such activity can be tested by growing myoblasts in the presence or absence (control) of a candidate polypeptide of the invention. […]
The myoblast proliferation assay was carried out in uncoated 96-well microtitre plates. C2C12 cultures were seeded at 1000 cells/well. Following a 16-hour attachment period, test media containing either recombinant wild type myostatin or different myostatin antagonists were added and cells were incubated for a further 48 or 72 hour period. For competition assay, wild type myostatin was competed with different concentrations of myostatin antagonists prior to the addition into the media. After the incubation period, proliferation was assessed using methylene blue photometric endpoint assay as previously described (Thomas et al, 2000).

[2] = test system: primary myoblasts; test: Myoblast chemotaxis assay, effect of recombinant myostatin; format: cell-based; settings: recombinant myostatin at 2.5 μg/ml in control (CEE) medium; myoblasts from old (2 year old) mice
Protocol: Primary myoblasts were cultured from the hind limb muscle of young (4 to 6 week old) or old (24 month old) mice, according to the published protocols (Allen et al., 1997; Partridge, 1997). Briefly, muscles were minced, and digested in 0.2% collagenase type 1A for 90 min. Cultures were enriched for myoblasts by pre-plating on uncoated plates for 3 hours. Myoblast cultures were maintained in growth media (GM) supplemented with 20% fetal calf serum (FCS), 10% HS and 1% CEE on 10% Matrigel coated plates, at 37° C./5% CO2. The extent of culture purity was assessed by flow cytometry analysis of MyoD expression after 48 hours in culture. Cells were harvested using trypsin, suspended at a concentration of 10^6 cells/200 μl and fixed overnight in 5 ml 70% ethanol at −20° C. Staining was performed for 30 min at room temperature using rabbit polyclonal anti-MyoD, 1:200 (Santa Cruz), followed by Alexa fluor 488 anti-rabbit conjugate, 1:500 (Molecular Probes). Analysis was carried out in duplicate with 10^4 cell events collected in each assay. Debris was excluded by gating on forward and side scatter profiles. Cells were analyzed by FACScan (Becton Dickinson). […]
For the chemotaxis assay of myoblasts, a first assay was carried out on myoblasts from 2 year old mice as follows. […] Migrated cells were counted on four representative fields per membrane and the average number plotted. […]

[3] = test system: p-FoxO1; test: In vitro cancer cachexia trial: p-FoxO1 Western blot in C2C12 myotubes; format: cell-based, murine; settings: 6 μg/mL recombinant Myostatin; 24 hour treatment; C2C12 myotubes
Protocol: C2C12 cells were differentiated for 72 hours in differentiation media (DMEM+2% HS). Following this period of differentiation the myotubes were tested with recombinant myostatin at 6 μg/mL or a combination of both myostatin and 300 recombinant protein at 30, 60, 90 or 120 μg/mL for further 24 hours to determine if 300 can rescue myostatin-mediated muscle wasting in vitro. Gene expression changes of intermediate signalling molecules critical in myostatin-mediated cachexia were analysed. Therefore, protein was isolated from cells and Western blot analysis was performed to measure protein expression levels for p-FoxO1, which we have shown to be a critical signalling intermediates in Myostatin-mediated cachexia (McFarlane et al 2006).

Substance: recombinant myostatin: recombinant wild type myostatin (GDF-8), negative regulator of muscle growth, added to inhibit myoblasts [reference compound]
- inhibition of myoblast proliferation ([1]; after 48 hours): 25%
- inhibition of myoblast proliferation ([1]; after 72 hours): about 10%
- decrease in the number of migrated myoblasts [2]: approximately 78%
- p-FoxO1 expression (normalised to total FoxO1) [3]: down-regulation
